The values below are quoted from earlier work in patent US20020035131A1, “Regimen and kit for amelioration of premature ejaculation” (Pentech Pharmaceuticals, Inc., priority 1999, published 2002).

This series has as its system patients treated for premature ejaculation. The settings on record: cited from earlier work.

With `CN[C@H]1CC[C@@H](c2ccc(Cl)c(Cl)c2)c2ccccc21` [sertraline], the “patients who managed to ejaculate during sexual intercourse” value (25 mg sertraline/day, study group of 46) is recorded as “all patients”. In addition, the “men unable to ejaculate after prolonged sexual intercourse” value (50 mg sertraline/day, 4/46) is reported as 9%. Further, the “patients unable to ejaculate after prolonged sexual intercourse” value (100 mg sertraline/day, 10/46) is listed as 22%.
